In US20020132809A1, “Heterocyclic carboxamide derivatives as inhibitors of nitric oxide production” (Fujisawa Pharmaceutical Co. Ltd., priority 1998, published 2002):

| SMILES | melting point [°C] |
| --- | --- |
| Cn1c(-c2ccc(N3CCOCC3)c(F)c2)cnc1[C@H](Cc1ccccn1)N(C=O)c1cc2cc(Cl)ccc2o1 [Example 19, (1S)-(5-Chlorobenzo[b]furan-2-yl)-N-[1-[5-(3-fluoro-4-morpholinophenyl)-1-methylimidazol-2-yl]-2-(2-pyridyl)ethyl]formamide] | 134 to 135 |
| Cn1c(-c2ccc(N3CCOCC3)cc2)cnc1[C@H](Cc1ccccn1)N(C=O)c1cc2cc(F)ccc2o1 [Example 4, (1S)-(5-Fluorobenzo[b]furan-2-yl)-N-[1-[1-methyl-5-(4-morpholinophenyl)imidazol-2-yl]-2-(2-pyridyl)ethyl]formamide] | 130 to 132 |
| COc1ccc2oc(N(C=O)[C@@H](Cc3ccccn3)c3ncc(-c4ccc([N+](=O)[O-])cc4)n3C)cc2c1 [Compound (f), (1S)-(5-methoxybenzo[b]furan-2-yl)-N-[1-[1-methyl-5-(4-nitrophenyl)imidazol-2-yl]-2-(2-pyridyl)ethyl]formamide] | 210 to 211 |
| Cn1ccnc1-c1ccc(-c2cnc([C@H](Cc3ccccn3)N(C=O)c3cc4ccccc4[nH]3)n2C)cc1 [Example 22, (1S)-(Indol-2-yl)-N-[1-[5-[4-(1-methylimidazol-2-yl)phenyl]-1-methylimidazol-2-yl]-2-(2-pyridyl)ethyl]formamide] | 218 to 222 |
| Cn1c(-c2ccc([N+](=O)[O-])cc2)cnc1[C@H](Cc1ccccn1)N(C=O)c1cc2cc(F)ccc2o1 [Example 63, (1S)-(5-Fluorobenzo[b]furan-2-yl)-N-[1-[1-methyl-5-(4-nitrophenyl)imidazol-2-yl]-2-(2-pyridyl)ethyl]formamide] | 207 to 208 |
| Cn1c(-c2ccc(-c3cccnc3)cc2)cnc1[C@H](Cc1ccccn1)N(C=O)c1cc2cc(Cl)ccc2o1 [Example 34, (1S)-(5-Chlorobenzo[b]furan-2-yl)-N-[1-[1-methyl-5-[4-(3-pyridyl)-phenyl]imidazol-2-yl]-2-(2-pyridyl)ethyl]formamide] | 158 to 160 |
| Cn1c(-c2ccc(-n3cnc4ccccc43)cc2)cnc1[C@H](Cc1ccccn1)N(C=O)c1cc2ccccc2[nH]1 [Example 31, (1S)-N-[1-[5-[4-(1-Benzimidazolyl)phenyl]-1-methylimidazol-2-yl]-2-(2-pyridyl)ethyl](indol-2-yl)formamide] | 233 to 237 |
| Cc1nc([C@H](Cc2ccccn2)N(C=O)c2cc3ccccc3[nH]2)n(C)c1-c1ccc(-n2ccnc2)cc1 [Example 23, (1S)-N-[1-[5-[4-(1-Imidazolyl)phenyl]-1,4-dimethylimidazol-2-yl]-2-(2-pyridyl)ethyl](indol-2-yl)formamide] | 156 to 157 |
| Cn1c(-c2ccc(N3CCOCC3)cc2)cnc1[C@H](Cc1ccccn1)N(C=O)c1nc2cc(Cl)ccc2s1 [Example 6, (1S)-(5-Chlorobenzothiazol-2-yl)-N-[1-[1-methyl-5-(4-morpholinophenyl)imidazol-2-yl]-2-(2-pyridyl)ethyl]formamide] | 96 to 99 |
| COc1ccc2oc(N(C=O)[C@@H](Cc3ccccn3)c3ncc(-c4ccc(-c5ccccc5)cc4)n3C)cc2c1 [Example 9, (1S)-N-[1-[5-(4-Biphenylyl)-1-methylimidazol-2-yl]-2-(2-pyridyl)-ethyl](5-methoxybenzo[b]furan-2-yl)formamide] | 150 to 152 |
| Cn1c(-c2ccc(-c3ccncc3)cc2)cnc1[C@H](Cc1ccccn1)N(C=O)c1cc2cc(Cl)ccc2o1 [Example 37, (1S)-(5-Chlorobenzo[b]furan-2-yl)-N-[1-[1-methyl-5-[4-(4-pyridyl)-phenyl]imidazol-2-yl]-2-(2-pyridyl)ethyl]formamide] | 135 to 140 |

More lines, now with the values ahead:

| melting point [°C] | SMILES |
| --- | --- |
| 159 to 161 | Cc1nccn1-c1ccc(-c2cnc([C@H](Cc3ccccn3)N(C=O)c3cc4cc(Cl)ccc4o3)n2C)cc1 [Example 70, (1S)-(5-Chlorobenzo[b]furan-2-yl)-N-[1[-1-methyl-5-[4-(2-methylimidazol-1-yl)phenyl]imidazol-2-yl]-2-(2-pyridyl)ethyl]formamide] |
| 190 to 200 | CCn1c(-c2ccc(-n3ccnc3)cc2)cnc1[C@H](Cc1ccccn1)N(C=O)c1cc2cc([N+](=O)[O-])ccc2o1.Cl.Cl.Cl |
| 221 to 223 | Cn1c(-c2ccc(-n3ccnc3)cc2)cnc1[C@H](Cc1ccccn1)N(C=O)c1cc2cc([N+](=O)[O-])ccc2o1 [Example 50, (1S)-N-[1-[5-[4-(1-Imidazolyl)phenyl]-1-methylimidazol-2-yl]-2-(2-pyridyl)ethyl](5-nitrobenzo[b]furan-2-yl)formamide] |
| 85 to 89 | CCn1c(-c2ccc(-n3ccnc3)cc2)cnc1[C@H](Cc1ccccn1)N(C=O)c1cc2cc(C(F)(F)F)ccc2o1 [Example 29, (1S)-N-[1-[1-Ethyl-5-[4-(1-imidazolyl)phenyl]imidazol-2-yl]-2-(2-pyridyl)ethyl][5-(trifluoromethyl)benzo[b]furan-2-yl]formamide] |
| 77 to 81 | CCCn1c(-c2ccc(-n3ccnc3)cc2)cnc1[C@H](Cc1ccccn1)N(C=O)c1cc2cc(F)ccc2o1 [Example 56, (1S)-(5-Fluorobenzo[b]furan-2-yl)-N-[1-[5-[4-(1-imidazolyl)-phenyl]-1-propylimidazol-2-yl]-2-(2-pyridyl)ethyl]formamide] |
| 93 to 99 | CCCn1c(-c2ccc(-n3ccnc3)cc2)cnc1[C@H](Cc1ccccn1)N(C=O)c1cc2cc(Br)ccc2o1 [Example 44, (1S)-(5-Bromobenzo[b]furan-2-yl)-N-[1-[5-[4-(1-imidazolyl)phenyl]-1-propylimidazol-2-yl]-2-(2-pyridyl)ethyl]formamide] |
| 190 to 195 | CCn1c(-c2ccc(-n3ccnc3)cc2)cnc1[C@H](Cc1ccccn1)N(C=O)c1cc2cc(OC)ccc2o1.Cl.Cl.Cl |
| 92 to 98 | CCCn1c(-c2ccc(-n3ccnc3)cc2)cnc1[C@H](Cc1ccccn1)N(C=O)c1cc2cc(C(F)(F)F)ccc2o1 [Example 30, (1S)-N-[1-[5-[4-(1-Imidazolyl)phenyl]-1-propylimidazol-2-yl]-2-(2-pyridyl)ethyl][5-(trifluoromethyl)benzo[b]furan-2-yl]formamide] |
| 180 to 182 | Cn1c(-c2ccc(-n3ccnc3)cc2)cnc1[C@H](Cc1ccccn1)N(C=O)c1cc2cc(F)ccc2o1 [Example 54, (1S)-(5-Fluorobenzo[b]furan-2-yl)-N-[1-[5-[4-(1-imidazolyl)-phenyl]-1-methylimidazol-2-yl]-2-(2-pyridyl)ethyl]formamide] |
| 80 to 84 | CCn1c(-c2ccc(-n3ccnc3)cc2)cnc1[C@H](Cc1ccccn1)N(C=O)c1cc2cc(F)ccc2o1 [Example 55, (1S)-N-[1-[1-Ethyl-5-[4-(1-imidazolyl)phenyl]imidazol-2-yl]-2-(2-pyridyl)ethyl](5-fluorobenzo[b]furan-2-yl)formamide] |
| 173 to 175 | CCCn1c(-c2ccc(-n3ccnc3)cc2)cnc1[C@H](Cc1ccccn1)N(C=O)c1cc2cc(Cl)ccc2o1 [Example 48, (1S)-(5-Chlorobenzo[b]furan-2-yl)-N-[1-[5-[4-(1-imidazolyl)-phenyl]-1-propylimidazol-2-yl]-2-(2-pyridyl)ethyl]formamide] |
